A word on the clearance: it is the volume of plasma or blood freed of the substance per unit of time. In general, IC50 refers to the concentration at which inhibition is half-maximal. The Vd is a proportionality between amount in the body and measured concentration, not a real space. For orientation: inhibition means the share of the control response that was lost under treatment. Usually bioavailability stands for dose-corrected exposure relative to a reference, in per cent.

The structures appear in SMILES notation. Some results are limits rather than exact numbers.

The nature of data set [1]: Clearance in rat at 2 mg/kg, iv. It counts as ADME, organism-based. Set-up: dose 2 mg/kg, route intravenous. The conditions noted are these: in vivo.
The target of data set [2] is Platelet-derived growth factor receptor beta (Homo sapiens, UniProt P09619). The data set is described as follows: Inhibition of PDGFRbeta.
The target of data set [3] is T1, Receptor-type tyrosine-protein kinase FLT3 (Homo sapiens, UniProt P36888).
T1 sequence (P36888 whole entry): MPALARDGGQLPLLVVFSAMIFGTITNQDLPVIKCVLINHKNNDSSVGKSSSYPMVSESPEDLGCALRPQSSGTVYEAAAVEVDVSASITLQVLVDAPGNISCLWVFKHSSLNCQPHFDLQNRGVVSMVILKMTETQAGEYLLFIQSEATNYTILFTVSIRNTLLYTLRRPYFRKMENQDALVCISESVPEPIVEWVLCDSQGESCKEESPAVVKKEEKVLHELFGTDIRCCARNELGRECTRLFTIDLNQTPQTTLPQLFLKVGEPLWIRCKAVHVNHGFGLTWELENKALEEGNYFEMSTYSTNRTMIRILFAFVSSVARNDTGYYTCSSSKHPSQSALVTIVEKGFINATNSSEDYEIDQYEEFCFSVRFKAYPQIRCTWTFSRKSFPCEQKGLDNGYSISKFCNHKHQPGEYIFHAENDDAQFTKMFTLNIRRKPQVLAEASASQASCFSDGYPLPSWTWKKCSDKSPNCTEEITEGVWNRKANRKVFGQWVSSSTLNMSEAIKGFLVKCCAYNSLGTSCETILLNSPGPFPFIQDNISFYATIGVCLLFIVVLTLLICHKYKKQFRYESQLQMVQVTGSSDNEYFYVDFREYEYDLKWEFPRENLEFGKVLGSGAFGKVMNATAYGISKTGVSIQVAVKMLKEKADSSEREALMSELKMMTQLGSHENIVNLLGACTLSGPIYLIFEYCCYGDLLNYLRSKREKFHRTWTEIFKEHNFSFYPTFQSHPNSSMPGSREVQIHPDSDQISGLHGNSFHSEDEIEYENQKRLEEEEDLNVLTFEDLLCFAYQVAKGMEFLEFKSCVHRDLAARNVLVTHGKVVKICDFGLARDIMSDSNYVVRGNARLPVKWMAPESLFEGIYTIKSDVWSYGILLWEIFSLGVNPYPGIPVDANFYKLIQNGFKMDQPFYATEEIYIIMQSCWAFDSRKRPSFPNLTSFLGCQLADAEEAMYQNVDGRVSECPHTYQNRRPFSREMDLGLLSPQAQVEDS
The data set is described as follows: Inhibition of FLT3.

In data set [4] the target is T2, Macrophage colony-stimulating factor 1 receptor (Homo sapiens, UniProt P07333). The data set is described as follows: Inhibition of CSF1R.
For the next data set, the system named is Macrophage. Kind of data set: Inhibition of CSF1-induced proliferation of mouse bone marrow derived macrophages.
Data set [5] can be described thus: Volume of distribution in rat at 2 mg/kg, iv. In kind it is ADME, organism-based. More on the design: dose 2 mg/kg, route intravenous. The note with it: in vivo.
A short description of data set [6]: Metabolic stability in rat liver microsomes after 10 mins. In kind it is ADME, Microsome. The conditions noted are these: read-out: Stability. For orientation: Liver microsomes are vesicles of endoplasmic reticulum, rich in cytochrome P450 enzymes.
In data set [7] the target is T3, Adenosine receptor A3 (Homo sapiens) (UniProt P0DMS8).
T3 sequence (whole entry): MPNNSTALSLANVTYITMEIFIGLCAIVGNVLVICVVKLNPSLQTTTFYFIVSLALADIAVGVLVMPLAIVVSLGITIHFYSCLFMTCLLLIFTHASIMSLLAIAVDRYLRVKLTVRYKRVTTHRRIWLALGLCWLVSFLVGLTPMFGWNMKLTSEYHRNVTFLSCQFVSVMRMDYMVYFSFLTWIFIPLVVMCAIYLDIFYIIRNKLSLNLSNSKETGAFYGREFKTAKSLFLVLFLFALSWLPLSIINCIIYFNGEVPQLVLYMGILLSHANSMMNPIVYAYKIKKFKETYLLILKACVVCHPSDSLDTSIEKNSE
The data set is described as follows: Inhibition of human A3 receptor at 5 uM.

Data set [8] deals with Proto-oncogene tyrosine-protein kinase Src (Homo sapiens, UniProt P12931). The data set is described as follows: Inhibition of Src.
Data set [9] deals with T4, Tyrosine-protein kinase receptor UFO (Homo sapiens, UniProt P30530).
T4 sequence (P30530 whole entry): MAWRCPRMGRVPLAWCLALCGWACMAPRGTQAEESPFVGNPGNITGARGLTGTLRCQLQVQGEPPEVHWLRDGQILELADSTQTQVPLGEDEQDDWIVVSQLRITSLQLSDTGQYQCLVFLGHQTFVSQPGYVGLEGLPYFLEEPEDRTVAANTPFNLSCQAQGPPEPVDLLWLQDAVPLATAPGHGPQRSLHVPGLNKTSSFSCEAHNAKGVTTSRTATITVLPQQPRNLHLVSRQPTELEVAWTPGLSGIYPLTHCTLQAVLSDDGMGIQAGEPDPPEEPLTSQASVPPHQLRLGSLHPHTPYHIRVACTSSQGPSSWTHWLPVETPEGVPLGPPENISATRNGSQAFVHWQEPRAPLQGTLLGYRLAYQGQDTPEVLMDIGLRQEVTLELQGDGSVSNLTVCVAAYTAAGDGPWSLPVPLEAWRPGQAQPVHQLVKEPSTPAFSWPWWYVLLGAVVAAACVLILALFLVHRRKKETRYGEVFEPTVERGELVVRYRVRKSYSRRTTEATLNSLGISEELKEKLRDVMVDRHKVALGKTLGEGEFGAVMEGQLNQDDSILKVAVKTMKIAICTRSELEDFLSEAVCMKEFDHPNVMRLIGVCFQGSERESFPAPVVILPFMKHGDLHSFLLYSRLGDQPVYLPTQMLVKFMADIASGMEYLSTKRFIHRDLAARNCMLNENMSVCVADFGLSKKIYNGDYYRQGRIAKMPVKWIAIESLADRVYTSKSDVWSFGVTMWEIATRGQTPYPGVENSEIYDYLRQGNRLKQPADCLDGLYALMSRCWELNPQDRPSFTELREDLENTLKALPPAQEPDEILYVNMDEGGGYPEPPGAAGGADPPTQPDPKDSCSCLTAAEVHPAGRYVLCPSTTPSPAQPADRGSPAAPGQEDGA
The data set is described as follows: Inhibition of Axl.

The nature of data set [10]: Inhibition of IRKbeta.
Data set [11] concerns the target Mast/stem cell growth factor receptor Kit (Homo sapiens, UniProt P10721). The data set is described as follows: Inhibition of KIT.
Data set [12] concerns the target High affinity nerve growth factor receptor (Homo sapiens, UniProt P04629). Kind of data set: Inhibition of TrkA.
Data set [13] is described as follows: Metabolic stability in human liver microsomes after 10 mins. In kind it is ADME, Microsome. The conditions noted are these: read-out: Stability.
Data set [14] addresses T2, Macrophage colony-stimulating factor 1 receptor.
Description: Inhibition of ATP-induced CSF1R autophosphorylation
The target of data set [15] is Adenosine receptor A2a (Homo sapiens) (UniProt P29274). The data set is described as follows: Inhibition of human A2A receptor at 10 uM.
Data set [16] deals with T3, Adenosine receptor A3 (Homo sapiens). Kind of data set: Inhibition of human A3 receptor at 10 uM.
Data set [17] concerns Mus musculus. The data set is described as follows: Inhibition of LPS-induced TNFalpha production in Swiss Webster mouse plasma at 50 mg/kg, ip after 90 mins. It counts as functional. Set-up: scale not given: the % may be the effect or the level left. The note with it: route intraperitoneal.
Data set [18] in a line: Bioavailability in rat 10 mg/kg, po. It counts as ADME, organism-based. The conditions noted are these: in vivo.
The subject of data set [19] is Mus musculus. Kind of data set: Inhibition of LPS-induced TNFalpha production in Swiss Webster mouse plasma at 20 mg/kg, ip after 90 mins. In kind it is functional. More on the design: scale not given: the % may be the effect or the level left. The note with it: route intraperitoneal.

T2 sequence (P07333 whole entry): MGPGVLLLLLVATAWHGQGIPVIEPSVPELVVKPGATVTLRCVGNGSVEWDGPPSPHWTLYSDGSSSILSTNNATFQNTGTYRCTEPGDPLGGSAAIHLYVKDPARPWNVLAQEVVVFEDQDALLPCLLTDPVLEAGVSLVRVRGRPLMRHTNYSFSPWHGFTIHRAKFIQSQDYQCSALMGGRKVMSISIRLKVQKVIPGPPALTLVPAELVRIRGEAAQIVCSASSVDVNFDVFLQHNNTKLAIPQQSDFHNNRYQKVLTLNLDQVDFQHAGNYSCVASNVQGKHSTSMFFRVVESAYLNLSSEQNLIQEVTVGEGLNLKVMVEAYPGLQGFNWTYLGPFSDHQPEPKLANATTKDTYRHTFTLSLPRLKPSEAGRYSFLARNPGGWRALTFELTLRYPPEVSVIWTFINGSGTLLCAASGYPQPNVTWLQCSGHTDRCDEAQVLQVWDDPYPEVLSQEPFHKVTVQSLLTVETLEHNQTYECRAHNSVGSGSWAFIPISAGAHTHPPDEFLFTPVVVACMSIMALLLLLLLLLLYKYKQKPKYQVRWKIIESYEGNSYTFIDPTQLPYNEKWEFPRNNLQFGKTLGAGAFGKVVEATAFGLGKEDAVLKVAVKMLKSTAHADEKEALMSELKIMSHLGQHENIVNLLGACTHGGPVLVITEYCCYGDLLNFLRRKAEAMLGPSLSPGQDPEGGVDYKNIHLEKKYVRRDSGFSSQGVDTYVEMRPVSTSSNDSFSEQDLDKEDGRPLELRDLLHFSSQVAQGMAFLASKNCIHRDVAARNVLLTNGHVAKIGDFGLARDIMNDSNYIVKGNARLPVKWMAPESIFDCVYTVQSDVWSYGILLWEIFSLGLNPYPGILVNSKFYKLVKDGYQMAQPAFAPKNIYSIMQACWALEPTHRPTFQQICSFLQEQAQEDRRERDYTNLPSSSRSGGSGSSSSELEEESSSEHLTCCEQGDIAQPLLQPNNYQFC
Proto-oncogene tyrosine-protein kinase Src, sequence (P12931 2-536 limits assumed): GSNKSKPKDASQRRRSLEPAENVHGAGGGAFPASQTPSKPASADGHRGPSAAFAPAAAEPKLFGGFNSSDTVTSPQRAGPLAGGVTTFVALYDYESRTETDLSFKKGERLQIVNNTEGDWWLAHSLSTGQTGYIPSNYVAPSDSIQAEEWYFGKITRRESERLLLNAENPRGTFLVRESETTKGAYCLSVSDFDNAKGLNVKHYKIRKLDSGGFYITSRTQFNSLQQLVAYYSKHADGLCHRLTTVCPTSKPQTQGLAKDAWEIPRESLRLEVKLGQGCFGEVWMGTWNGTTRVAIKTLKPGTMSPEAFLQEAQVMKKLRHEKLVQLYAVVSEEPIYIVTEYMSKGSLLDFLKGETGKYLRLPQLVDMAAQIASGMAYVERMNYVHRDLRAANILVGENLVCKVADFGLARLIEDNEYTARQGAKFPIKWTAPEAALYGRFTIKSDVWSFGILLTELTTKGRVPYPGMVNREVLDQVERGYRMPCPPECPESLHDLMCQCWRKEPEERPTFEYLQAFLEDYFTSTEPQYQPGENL
High affinity nerve growth factor receptor, sequence (P04629 whole entry): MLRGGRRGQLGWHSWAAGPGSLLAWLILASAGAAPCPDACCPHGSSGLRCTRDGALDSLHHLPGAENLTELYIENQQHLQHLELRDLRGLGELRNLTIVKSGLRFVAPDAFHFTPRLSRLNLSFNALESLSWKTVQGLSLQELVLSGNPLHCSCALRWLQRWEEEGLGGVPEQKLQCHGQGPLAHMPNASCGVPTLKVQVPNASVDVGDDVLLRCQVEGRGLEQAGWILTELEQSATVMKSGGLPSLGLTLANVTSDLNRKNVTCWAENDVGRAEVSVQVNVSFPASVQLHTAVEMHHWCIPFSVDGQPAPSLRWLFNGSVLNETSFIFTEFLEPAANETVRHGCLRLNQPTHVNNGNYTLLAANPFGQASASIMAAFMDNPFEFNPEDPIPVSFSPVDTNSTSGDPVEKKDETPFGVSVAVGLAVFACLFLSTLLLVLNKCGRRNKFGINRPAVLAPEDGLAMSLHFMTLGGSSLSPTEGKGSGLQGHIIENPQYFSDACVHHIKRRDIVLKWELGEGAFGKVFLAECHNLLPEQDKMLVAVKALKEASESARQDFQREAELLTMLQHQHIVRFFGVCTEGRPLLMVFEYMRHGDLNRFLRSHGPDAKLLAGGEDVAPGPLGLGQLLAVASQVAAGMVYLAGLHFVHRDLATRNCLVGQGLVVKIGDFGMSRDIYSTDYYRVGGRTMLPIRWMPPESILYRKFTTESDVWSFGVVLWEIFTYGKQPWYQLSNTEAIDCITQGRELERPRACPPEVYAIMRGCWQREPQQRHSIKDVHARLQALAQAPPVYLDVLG
Platelet-derived growth factor receptor beta, sequence (P09619 whole entry): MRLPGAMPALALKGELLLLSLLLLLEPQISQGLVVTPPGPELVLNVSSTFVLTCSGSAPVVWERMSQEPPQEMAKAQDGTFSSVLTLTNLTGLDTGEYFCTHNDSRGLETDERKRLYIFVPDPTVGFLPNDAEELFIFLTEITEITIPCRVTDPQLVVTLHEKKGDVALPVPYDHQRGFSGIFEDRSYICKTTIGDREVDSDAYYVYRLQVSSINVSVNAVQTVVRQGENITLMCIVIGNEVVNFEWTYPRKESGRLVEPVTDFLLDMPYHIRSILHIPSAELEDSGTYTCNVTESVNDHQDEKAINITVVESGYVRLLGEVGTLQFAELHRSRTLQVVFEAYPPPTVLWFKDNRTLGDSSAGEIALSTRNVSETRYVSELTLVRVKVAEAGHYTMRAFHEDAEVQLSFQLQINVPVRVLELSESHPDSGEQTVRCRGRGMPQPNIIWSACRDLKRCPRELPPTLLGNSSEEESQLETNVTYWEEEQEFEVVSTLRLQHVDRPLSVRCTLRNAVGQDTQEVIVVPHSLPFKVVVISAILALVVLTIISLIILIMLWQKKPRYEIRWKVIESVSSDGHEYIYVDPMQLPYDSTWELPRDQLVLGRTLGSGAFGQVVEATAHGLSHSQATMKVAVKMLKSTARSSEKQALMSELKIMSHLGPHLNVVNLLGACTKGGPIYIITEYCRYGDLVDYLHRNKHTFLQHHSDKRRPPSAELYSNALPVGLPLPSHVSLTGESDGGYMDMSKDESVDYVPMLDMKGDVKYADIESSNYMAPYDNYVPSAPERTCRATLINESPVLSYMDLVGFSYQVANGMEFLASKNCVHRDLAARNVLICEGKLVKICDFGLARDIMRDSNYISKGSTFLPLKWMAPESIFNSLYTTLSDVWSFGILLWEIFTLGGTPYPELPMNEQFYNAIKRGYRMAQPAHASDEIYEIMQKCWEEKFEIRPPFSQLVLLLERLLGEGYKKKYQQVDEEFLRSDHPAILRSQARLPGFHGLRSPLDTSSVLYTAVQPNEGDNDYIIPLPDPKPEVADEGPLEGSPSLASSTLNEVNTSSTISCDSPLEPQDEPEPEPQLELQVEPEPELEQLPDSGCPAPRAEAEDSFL
Mast/stem cell growth factor receptor Kit, sequence (P10721 whole entry): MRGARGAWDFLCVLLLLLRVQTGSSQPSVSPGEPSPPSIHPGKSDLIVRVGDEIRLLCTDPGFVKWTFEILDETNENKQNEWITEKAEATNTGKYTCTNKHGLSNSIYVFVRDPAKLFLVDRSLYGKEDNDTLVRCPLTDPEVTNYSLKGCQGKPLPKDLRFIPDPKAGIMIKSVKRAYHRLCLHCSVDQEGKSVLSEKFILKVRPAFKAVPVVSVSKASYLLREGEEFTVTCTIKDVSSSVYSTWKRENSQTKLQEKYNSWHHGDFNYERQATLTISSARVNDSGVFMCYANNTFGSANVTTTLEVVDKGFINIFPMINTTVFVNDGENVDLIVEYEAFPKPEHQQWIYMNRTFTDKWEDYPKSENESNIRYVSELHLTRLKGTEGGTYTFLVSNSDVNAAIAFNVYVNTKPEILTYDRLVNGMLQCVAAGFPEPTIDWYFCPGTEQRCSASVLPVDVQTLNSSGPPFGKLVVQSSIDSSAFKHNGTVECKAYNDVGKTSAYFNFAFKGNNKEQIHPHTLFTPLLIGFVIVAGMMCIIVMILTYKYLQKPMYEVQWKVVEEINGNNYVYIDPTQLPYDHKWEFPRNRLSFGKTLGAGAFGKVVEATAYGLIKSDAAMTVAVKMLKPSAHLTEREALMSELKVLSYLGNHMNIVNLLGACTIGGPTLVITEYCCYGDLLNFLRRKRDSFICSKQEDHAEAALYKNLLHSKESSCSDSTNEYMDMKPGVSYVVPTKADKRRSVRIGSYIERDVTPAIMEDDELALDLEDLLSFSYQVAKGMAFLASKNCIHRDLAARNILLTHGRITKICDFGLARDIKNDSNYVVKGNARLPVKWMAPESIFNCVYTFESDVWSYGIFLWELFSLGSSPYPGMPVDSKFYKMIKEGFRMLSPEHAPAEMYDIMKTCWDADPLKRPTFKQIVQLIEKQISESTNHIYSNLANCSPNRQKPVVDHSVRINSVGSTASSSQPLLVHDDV
Adenosine receptor A2a (Homo sapiens), sequence (P29274 whole entry): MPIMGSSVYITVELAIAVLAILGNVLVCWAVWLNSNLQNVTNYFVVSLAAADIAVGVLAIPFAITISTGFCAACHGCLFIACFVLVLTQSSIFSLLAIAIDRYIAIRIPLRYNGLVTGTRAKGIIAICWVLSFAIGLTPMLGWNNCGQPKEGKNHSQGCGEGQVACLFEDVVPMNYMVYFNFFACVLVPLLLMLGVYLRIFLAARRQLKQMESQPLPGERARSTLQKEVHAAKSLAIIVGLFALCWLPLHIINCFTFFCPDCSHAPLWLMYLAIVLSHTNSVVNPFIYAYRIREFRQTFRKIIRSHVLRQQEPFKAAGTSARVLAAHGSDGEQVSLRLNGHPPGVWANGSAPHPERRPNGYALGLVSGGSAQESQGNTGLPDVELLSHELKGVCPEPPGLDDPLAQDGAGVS

On to `CN1CCN(c2ccc(Nc3ncc4c(=O)c(C(N)=O)cn(-c5ccc6c(c5)CCC6)c4n3)cc2)CC1`, for which the clearance in data set [1] came to 133 mL/min/kg. Also, the IC50 in data set [2] is > 1000 nM; in [3] it was 3 nM; in data set [4] it was 13 nM; in the data set with Macrophage, 16 nM; in data set [8], 1000 nM; in data set [9] it was > 300 nM. Further, the IC50 was > 1000 nM in data set [10], 56 nM in data set [11] and 200 nM in data set [12]. In data set [5], this compound displayed a Vd of 18.7 L/kg. Besides, the figures for the remaining at 10 min in data set [6] and in [13] were 87.3% and 80.5%, respectively. This compound displayed an inhibition in data set [7] of 55%.
`NC(=O)c1cn(-c2ccc3c(c2)CCC3)c2nc(Nc3ccccc3)ncc2c1=O` showed an IC50 in data set [14] of 280 nM.
For the compound `CCOC(=O)c1nc2cnc(Nc3ccccc3)nc2n(-c2ccccc2)c1=O` [PTERIDINONE], the IC50 in [4] was 180 nM.
`CC1CN(c2ccc(Nc3ncc4c(=O)c(C(N)=O)cn(-c5ccc6c(c5)CCC6)c4n3)cc2)CC(C)N1` (centres undefined) came in with an IC50 in the data set on Macrophage of 3 nM.
As for `CCOC(=O)c1cn(-c2ccc3c(c2)CCC3)c2nc(Nc3ccc(N4CCN(C)CC4)cc3)ncc2c1=O`, the IC50 was determined as 250 nM in data set [14] and 470 nM in the data set on Macrophage.
In turn, `CN(C)CCc1ccc(Nc2ncc3c(=O)c(C(N)=O)cn(-c4ccc5c(c4)CCC5)c3n2)cc1` returned an IC50 in the data set with Macrophage of 16 nM. Further, the remaining at 10 min turned out to be 65% in [6] and 88% in [13].
For the compound `CN1CCN(c2cccc(Nc3ncc4c(=O)c(C(N)=O)cn(-c5ccc6c(c5)CCC6)c4n3)c2)CC1`, it took 6 nM to reach half-maximal inhibition with Macrophage (IC50).
Still for that read-out and setting: to `NC(=O)c1cn(-c2ccc3c(c2)CCC3)c2nc(Nc3ccc(C[C@H]4COC(=O)N4)cc3)ncc2c1=O` belongs 90 nM.
In the case of `CN1CCN(Cc2ccc(Nc3ncc4c(=O)c(C(N)=O)cn(-c5ccc6c(c5)CCC6)c4n3)cc2)CC1`, the clearance in [1] is 29 mL/min/kg. The results for the inhibition in data set [15] and in data set [16] were 58% and 60%, respectively. The IC50 in [2] was > 2000 nM; in [3], 1 nM; in the data set with Macrophage, 11 nM; in [8] it was 1500 nM; in data set [9], > 500 nM; in [10], > 2000 nM. Besides, the IC50 turned out to be 28 nM in data set [11] and 310 nM in data set [12]. Also, the Activity in the data set with Mus musculus [17] is on record as 87%; with Mus musculus [19], 81%. Besides, the Vd in [5] amounted to 26.5 L/kg. In addition, the bioavailability in data set [18] came to 4%. For the same compound, the figures for the remaining at 10 min in data set [6] and in data set [13] were 54% and 74%, respectively.
The compound `CN(C)Cc1ccc(Nc2ncc3c(=O)c(C(N)=O)cn(-c4ccc5c(c4)CCC5)c3n2)cc1` displayed an IC50 in the data set on Macrophage of 4 nM. Also, the remaining at 10 min is 38% in data set [6] and 35% in data set [13].
Take `NC(=O)c1cn(-c2ccc3c(c2)CCC3)c2nc(Nc3ccc(C4CCNCC4)cc3)ncc2c1=O`: inhibition in the data set with Macrophage was half-maximal at 51 nM (IC50).
The same measure, in the same setting: in the case of `NC(=O)c1cn(-c2ccc3c(c2)CCC3)c2nc(Nc3ccc(N4CCNCC4)cc3)ncc2c1=O` it was 4 nM.
As for `NC(=O)c1cn(-c2ccc3c(c2)CCC3)c2nc(Nc3ccc(CCN4CCOCC4)cc3)ncc2c1=O`, the IC50 (in data set [14]; in the data set on Macrophage) was 8 nM in each case. The remaining at 10 min in [6] came out at 83%; in [13], 58%.
Compound `CN1CCN(CCCNc2ncc3c(=O)c(C(N)=O)cn(-c4ccc5c(c4)CCC5)c3n2)CC1` showed an IC50 in [14] of 1800 nM.
On to `NC(=O)c1cn(-c2ccc3c(c2)CCC3)c2nc(Nc3ccc(CN4CCOCC4)cc3)ncc2c1=O`, for which the results for the IC50 (in data set [14]; in the data set on Macrophage) were 22 nM and 27 nM, respectively. Besides, the remaining at 10 min in [6] came out at 9.7%; in data set [13], 2.5%.
`CN1CCN(CCc2ccc(Nc3ncc4c(=O)c(C(N)=O)cn(-c5ccc6c(c5)CCC6)c4n3)cc2)CC1` yielded an IC50 in the data set on Macrophage of 9 nM. For the same compound, the results for the remaining at 10 min in [6] and in data set [13] were 84% and 96%, respectively.
For `NC(=O)c1cn(-c2ccc3c(c2)CCC3)c2nc(Nc3cccc(C(=O)N4CCCCC4)c3)ncc2c1=O`, 14 nM corresponded to half-maximal inhibition in the data set with Macrophage (IC50).

(Values after ChEMBL document CHEMBL1143902, “Design and synthesis of a pyrido[2,3-d]pyrimidin-5-one class of anti-inflammatory FMS inhibitors” (Bioorg Med Chem Lett, 2008).)
